inhibition, IC50 and residual activity data for 3 compounds are collected here from ChEMBL document CHEMBL5696442, “Discovery of type II inhibitors of TGFβ-activated kinase 1 (TAK1) and mitogen-activated protein kinase kinase kinase kinase 2 (MAP4K2)” (J Med Chem, 2015).

The target in experiment [1] is Serine/threonine-protein kinase 24 (Homo sapiens) (UniProt Q9Y6E0). The experiment in a line: Inhibition of MST3 (unknown origin) at 1 uM by Ambit Kinomescan binding assay relative to control.
In experiment [2] the target is T1, Tyrosine-protein kinase CSK (Homo sapiens, UniProt P41240). The experiment in a line: Inhibition of CSK (unknown origin) at 1 uM by Ambit Kinomescan binding assay relative to control.
Experiment [3] deals with Mitogen-activated protein kinase 11 (Homo sapiens) (UniProt Q15759). Briefly: Inhibition of p38 beta in human A-375 cells at 5 uM by KiNativ Profiling analysis relative to control. The format is cell-based.
Experiment [4] concerns the target RAF proto-oncogene serine/threonine-protein kinase (Homo sapiens, UniProt P04049). Briefly: Inhibition of RAF1 (unknown origin) Lys2 labeling site by KiNativ Profiling analysis.
Experiment [5] relates to Mast/stem cell growth factor receptor Kit (Homo sapiens), P10721 [V559D]. Briefly: Inhibition of KIT V559D mutant (unknown origin) at 1 uM by Ambit Kinomescan binding assay relative to control; values are per cent of control.
The target of experiment [6] is 5'-AMP-activated protein kinase catalytic subunit alpha-1 (Homo sapiens) (UniProt Q13131). Briefly: Inhibition of AMPKa1 Lys2 labeling site in human A-375 cells at 5 uM by KiNativ Profiling analysis relative to control. It counts as cell-based.
Experiment [7] has as its target Atypical kinase COQ8B, mitochondrial (Homo sapiens) (UniProt Q96D53). Briefly: Inhibition of ADCK4 (unknown origin) at 1 uM by Ambit Kinomescan binding assay relative to control.
Experiment [8] addresses Tyrosine-protein kinase Lck (Homo sapiens) (UniProt P06239). Briefly: Inhibition of LCK (unknown origin) at 10 uM by Ambit Kinomescan binding assay relative to control.
The target in experiment [9] is Cyclin-dependent kinase 5 (Homo sapiens) (UniProt Q00535). Briefly: Inhibition of CDK5 Lys1 labeling site in human A-375 cells at 0.05 uM by KiNativ Profiling analysis relative to control. It counts as cell-based.
The target of experiment [10] is T1, Tyrosine-protein kinase CSK. The experiment in a line: Inhibition of CSK ACT labeling site harbouring VSDFGLTKEASSTQDTGKLPVK in human Huh-7 cells at 1 uM by KiNativ Profiling analysis relative to control. The format is cell-based.
Experiment [11] addresses Wee1-like protein kinase 2 (Homo sapiens) (UniProt P0C1S8). The experiment in a line: Inhibition of WEE2 (unknown origin) at 10 uM by Ambit Kinomescan binding assay.
Experiment [12] addresses Tyrosine-protein kinase JAK2 (Homo sapiens) (UniProt O60674). The experiment in a line: Inhibition of JAK2 JH1 catalytic domain (unknown origin) at 10 uM by Ambit Kinomescan binding assay relative to control.
The target in experiment [13] is T2, Myotonin-protein kinase (Homo sapiens) (UniProt Q09013).
T2 sequence (whole entry): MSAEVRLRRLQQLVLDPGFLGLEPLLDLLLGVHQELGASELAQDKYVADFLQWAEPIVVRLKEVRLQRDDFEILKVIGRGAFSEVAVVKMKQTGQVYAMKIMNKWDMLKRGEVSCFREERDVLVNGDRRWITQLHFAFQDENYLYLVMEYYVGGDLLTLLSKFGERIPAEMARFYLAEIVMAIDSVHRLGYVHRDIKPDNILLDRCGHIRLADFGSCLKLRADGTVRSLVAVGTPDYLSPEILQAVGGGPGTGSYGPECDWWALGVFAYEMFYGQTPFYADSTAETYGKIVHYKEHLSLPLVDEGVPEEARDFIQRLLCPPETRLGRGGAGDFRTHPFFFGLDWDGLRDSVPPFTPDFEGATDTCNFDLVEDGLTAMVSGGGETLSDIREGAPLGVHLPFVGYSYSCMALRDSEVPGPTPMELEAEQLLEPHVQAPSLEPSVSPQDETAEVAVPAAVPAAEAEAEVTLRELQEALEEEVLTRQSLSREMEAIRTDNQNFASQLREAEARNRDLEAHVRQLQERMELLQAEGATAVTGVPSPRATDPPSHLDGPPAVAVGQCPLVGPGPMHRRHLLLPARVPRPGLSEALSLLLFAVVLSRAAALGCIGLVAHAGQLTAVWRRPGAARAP
Briefly: Inhibition of DMPK1 K2 labeling site in human Huh-7 cells at 10 uM by KiNativ Profiling analysis relative to control. The format is cell-based.

For experiment [14], the target named is Death-associated protein kinase 2 (Homo sapiens) (UniProt Q9UIK4). The experiment in a line: Inhibition of DAPK2 (unknown origin) at 10 uM by Ambit Kinomescan binding assay.
Experiment [15] addresses Serine/threonine-protein kinase DCLK3 (Homo sapiens) (UniProt Q9C098). Briefly: Inhibition of DCAMKL3 (unknown origin) at 10 uM by Ambit Kinomescan binding assay.
Experiment [16] has as its target Phosphatidylinositol 4,5-bisphosphate 3-kinase catalytic subunit alpha isoform (Homo sapiens) (UniProt P42336). The experiment in a line: Inhibition of PIK3CA (unknown origin) at 10 uM by Ambit Kinomescan binding assay.
The target in experiment [17] is Serine/threonine-protein kinase 3/4 (Homo sapiens) (UniProt Q13043+Q13188). Briefly: Inhibition of MST1/2 K2 labeling site in human Huh-7 cells at 10 uM by KiNativ Profiling analysis relative to control. The format is cell-based.
For experiment [18], the target named is Peripheral plasma membrane protein CASK (Homo sapiens) (UniProt O14936). Briefly: Inhibition of CASK Lys1 labeling site in human Huh-7 cell lysate at 1 uM by KiNativ Profiling analysis relative to control.
Experiment [19] deals with Phosphatidylinositol 3-kinase catalytic subunit type 3 (Homo sapiens) (UniProt Q8NEB9). Briefly: Inhibition of PIK3C3 ATP labeling site in human Huh-7 cells at 1 uM by KiNativ Profiling analysis relative to control. The format is cell-based.
Experiment [20] addresses Microtubule-associated serine/threonine-protein kinase 1 (Homo sapiens) (UniProt Q9Y2H9). The experiment in a line: Inhibition of MAST1 Lys2 labeling site in human Huh-7 cell lysate at 1 uM by KiNativ Profiling analysis relative to control.
Experiment [21] addresses Ribosomal protein S6 kinase alpha-1 (Homo sapiens) (UniProt Q15418). The experiment in a line: Inhibition of RSK1 domain 1 Lys2 labeling site harbouring DLKPENILLDEEGHIKLTDFGLSK in human Huh-7 cell lysate at 1 uM by KiNativ Profiling analysis relative to control. It counts as subcellular.
Experiment [22] deals with Mitogen-activated protein kinase 10 (Homo sapiens, UniProt P53779). Briefly: Inhibition of JNK3 Lys2 labeling site in human Huh-7 cells at 1 uM by KiNativ Profiling analysis relative to control. The format is cell-based.
In experiment [23] the target is Serine/threonine-protein kinase Nek4 (Homo sapiens) (UniProt P51957). Briefly: Inhibition of NEK4 Lys2 labeling site in human Huh-7 cells at 1 uM by KiNativ Profiling analysis relative to control. The format is cell-based.
Experiment [24] is described as follows: Inhibition of KHS1 Lys1 labeling site in human Huh-7 cell lysate at 1 uM by KiNativ Profiling analysis relative to control. The following applies: condition cancer.
Experiment [25] addresses Serine/threonine-protein kinase Nek3 (Homo sapiens) (UniProt P51956). Briefly: Inhibition of NEK3 ACT labeling site in human Huh-7 cell lysate at 1 uM by KiNativ Profiling analysis relative to control. It counts as subcellular.

The source made the active and inactive calls. The rule behind the calls is not given here.

T1 sequence (P41240 2-450 limits assumed): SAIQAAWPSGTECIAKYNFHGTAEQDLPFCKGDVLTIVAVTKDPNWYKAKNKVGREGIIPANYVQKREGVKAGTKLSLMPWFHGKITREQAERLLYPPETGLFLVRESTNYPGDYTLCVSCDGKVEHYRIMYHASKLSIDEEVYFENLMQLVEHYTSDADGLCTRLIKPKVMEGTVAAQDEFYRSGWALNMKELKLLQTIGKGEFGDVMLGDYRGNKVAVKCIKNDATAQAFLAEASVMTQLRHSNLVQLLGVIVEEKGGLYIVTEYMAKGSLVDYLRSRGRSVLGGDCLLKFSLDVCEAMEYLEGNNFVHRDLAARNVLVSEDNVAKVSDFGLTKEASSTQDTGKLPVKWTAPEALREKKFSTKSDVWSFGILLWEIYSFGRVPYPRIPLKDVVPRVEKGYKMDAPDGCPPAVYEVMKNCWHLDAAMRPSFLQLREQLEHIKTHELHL
Phosphatidylinositol 3-kinase catalytic subunit type 3 (Homo sapiens), sequence (Q8NEB9 whole entry): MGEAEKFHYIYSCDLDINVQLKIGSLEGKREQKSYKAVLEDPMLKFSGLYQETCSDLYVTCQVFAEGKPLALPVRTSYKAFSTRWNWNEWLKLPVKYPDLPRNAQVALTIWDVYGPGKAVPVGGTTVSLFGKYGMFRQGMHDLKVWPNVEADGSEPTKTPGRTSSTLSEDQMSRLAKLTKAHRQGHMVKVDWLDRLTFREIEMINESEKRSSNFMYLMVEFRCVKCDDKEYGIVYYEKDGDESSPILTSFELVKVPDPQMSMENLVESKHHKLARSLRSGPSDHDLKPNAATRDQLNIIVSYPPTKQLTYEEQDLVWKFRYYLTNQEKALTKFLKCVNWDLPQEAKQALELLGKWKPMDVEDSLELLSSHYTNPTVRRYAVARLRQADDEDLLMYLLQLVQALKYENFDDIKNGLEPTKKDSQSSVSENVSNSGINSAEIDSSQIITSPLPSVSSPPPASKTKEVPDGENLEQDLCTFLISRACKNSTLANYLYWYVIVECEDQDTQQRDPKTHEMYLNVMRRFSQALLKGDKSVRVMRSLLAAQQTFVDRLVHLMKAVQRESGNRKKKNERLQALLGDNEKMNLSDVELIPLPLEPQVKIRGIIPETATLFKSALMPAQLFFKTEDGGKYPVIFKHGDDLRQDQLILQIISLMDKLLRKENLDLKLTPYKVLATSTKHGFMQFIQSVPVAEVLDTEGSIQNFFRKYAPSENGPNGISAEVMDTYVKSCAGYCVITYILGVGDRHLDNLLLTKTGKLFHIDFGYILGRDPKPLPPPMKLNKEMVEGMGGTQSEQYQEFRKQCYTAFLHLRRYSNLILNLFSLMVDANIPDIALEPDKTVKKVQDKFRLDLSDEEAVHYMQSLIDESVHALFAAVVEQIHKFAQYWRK
Ribosomal protein S6 kinase alpha-1 (Homo sapiens), sequence (Q15418 whole entry, the tested form may be a part): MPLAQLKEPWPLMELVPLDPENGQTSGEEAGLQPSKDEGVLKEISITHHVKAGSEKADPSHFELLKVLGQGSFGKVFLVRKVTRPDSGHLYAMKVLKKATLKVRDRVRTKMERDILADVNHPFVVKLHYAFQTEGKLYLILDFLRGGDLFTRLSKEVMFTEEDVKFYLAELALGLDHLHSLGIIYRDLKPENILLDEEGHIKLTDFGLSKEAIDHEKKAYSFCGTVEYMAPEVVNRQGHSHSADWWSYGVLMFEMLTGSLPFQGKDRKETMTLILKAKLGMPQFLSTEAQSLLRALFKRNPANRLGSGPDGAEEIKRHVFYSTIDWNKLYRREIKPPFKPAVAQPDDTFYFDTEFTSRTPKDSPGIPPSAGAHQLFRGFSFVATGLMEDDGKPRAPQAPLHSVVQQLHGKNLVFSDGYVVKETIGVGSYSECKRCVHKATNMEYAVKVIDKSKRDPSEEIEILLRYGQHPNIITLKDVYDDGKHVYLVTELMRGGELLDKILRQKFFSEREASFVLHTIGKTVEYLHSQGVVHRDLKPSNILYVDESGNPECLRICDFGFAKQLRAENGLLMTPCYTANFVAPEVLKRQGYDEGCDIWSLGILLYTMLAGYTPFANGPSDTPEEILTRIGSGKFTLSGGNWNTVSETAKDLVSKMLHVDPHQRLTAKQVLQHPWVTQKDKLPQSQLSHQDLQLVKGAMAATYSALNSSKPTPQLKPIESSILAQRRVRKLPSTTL
Atypical kinase COQ8B, mitochondrial (Homo sapiens), sequence (Q96D53 whole entry): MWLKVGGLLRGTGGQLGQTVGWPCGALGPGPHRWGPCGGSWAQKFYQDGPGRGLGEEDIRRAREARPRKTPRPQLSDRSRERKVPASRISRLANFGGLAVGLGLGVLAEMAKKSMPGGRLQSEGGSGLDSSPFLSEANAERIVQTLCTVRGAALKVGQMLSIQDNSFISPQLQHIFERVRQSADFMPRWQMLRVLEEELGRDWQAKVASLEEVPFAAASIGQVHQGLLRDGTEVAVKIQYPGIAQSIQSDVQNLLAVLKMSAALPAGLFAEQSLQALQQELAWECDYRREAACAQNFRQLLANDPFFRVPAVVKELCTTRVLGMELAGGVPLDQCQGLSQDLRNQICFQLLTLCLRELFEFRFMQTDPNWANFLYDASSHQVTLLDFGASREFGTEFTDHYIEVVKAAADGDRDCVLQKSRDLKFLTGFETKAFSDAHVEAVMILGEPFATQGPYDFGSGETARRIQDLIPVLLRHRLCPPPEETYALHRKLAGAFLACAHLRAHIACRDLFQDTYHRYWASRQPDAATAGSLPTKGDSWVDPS
Serine/threonine-protein kinase Nek3 (Homo sapiens), sequence (P51956 whole entry): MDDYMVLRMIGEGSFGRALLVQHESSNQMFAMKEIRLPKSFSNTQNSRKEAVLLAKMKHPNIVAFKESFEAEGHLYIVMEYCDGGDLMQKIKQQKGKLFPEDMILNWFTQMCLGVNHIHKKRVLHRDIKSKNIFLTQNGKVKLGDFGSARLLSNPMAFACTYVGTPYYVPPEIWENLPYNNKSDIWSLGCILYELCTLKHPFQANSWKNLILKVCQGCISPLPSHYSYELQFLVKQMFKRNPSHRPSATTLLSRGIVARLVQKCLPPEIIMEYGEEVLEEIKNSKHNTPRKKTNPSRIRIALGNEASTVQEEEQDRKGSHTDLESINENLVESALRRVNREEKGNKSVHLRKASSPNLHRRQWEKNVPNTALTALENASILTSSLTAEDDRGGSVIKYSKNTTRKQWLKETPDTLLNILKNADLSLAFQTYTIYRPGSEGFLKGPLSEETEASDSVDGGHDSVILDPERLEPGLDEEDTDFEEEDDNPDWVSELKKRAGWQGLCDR
Mitogen-activated protein kinase 10, sequence (P53779 whole entry): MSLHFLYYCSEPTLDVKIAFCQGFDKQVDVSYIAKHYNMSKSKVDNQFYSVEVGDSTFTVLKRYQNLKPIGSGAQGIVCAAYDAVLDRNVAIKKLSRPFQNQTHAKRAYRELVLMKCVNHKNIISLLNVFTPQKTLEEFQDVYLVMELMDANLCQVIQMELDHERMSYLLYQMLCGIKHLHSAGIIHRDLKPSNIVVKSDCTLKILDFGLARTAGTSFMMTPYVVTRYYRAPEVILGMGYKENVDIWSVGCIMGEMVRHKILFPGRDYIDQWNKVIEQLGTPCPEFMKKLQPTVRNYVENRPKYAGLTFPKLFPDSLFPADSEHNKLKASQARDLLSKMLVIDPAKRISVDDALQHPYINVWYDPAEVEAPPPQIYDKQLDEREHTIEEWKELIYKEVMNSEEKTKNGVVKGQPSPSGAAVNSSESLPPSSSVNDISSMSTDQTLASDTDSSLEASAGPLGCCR
Tyrosine-protein kinase Lck (Homo sapiens), sequence (P06239 2-509 limits assumed): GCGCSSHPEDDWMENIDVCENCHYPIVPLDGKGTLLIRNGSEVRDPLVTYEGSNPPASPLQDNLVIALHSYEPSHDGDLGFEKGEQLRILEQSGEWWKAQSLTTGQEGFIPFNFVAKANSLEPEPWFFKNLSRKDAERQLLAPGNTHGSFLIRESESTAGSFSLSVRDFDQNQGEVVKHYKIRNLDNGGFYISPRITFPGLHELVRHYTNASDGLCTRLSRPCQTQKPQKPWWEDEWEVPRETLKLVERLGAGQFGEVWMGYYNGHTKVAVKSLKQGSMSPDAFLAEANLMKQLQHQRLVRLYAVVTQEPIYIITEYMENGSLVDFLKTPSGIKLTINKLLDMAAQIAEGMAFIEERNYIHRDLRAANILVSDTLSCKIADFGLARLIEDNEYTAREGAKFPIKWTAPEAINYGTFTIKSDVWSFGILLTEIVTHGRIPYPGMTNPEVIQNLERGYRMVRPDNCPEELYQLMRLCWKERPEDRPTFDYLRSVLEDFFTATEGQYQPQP
Peripheral plasma membrane protein CASK (Homo sapiens), sequence (O14936 whole entry, looked up): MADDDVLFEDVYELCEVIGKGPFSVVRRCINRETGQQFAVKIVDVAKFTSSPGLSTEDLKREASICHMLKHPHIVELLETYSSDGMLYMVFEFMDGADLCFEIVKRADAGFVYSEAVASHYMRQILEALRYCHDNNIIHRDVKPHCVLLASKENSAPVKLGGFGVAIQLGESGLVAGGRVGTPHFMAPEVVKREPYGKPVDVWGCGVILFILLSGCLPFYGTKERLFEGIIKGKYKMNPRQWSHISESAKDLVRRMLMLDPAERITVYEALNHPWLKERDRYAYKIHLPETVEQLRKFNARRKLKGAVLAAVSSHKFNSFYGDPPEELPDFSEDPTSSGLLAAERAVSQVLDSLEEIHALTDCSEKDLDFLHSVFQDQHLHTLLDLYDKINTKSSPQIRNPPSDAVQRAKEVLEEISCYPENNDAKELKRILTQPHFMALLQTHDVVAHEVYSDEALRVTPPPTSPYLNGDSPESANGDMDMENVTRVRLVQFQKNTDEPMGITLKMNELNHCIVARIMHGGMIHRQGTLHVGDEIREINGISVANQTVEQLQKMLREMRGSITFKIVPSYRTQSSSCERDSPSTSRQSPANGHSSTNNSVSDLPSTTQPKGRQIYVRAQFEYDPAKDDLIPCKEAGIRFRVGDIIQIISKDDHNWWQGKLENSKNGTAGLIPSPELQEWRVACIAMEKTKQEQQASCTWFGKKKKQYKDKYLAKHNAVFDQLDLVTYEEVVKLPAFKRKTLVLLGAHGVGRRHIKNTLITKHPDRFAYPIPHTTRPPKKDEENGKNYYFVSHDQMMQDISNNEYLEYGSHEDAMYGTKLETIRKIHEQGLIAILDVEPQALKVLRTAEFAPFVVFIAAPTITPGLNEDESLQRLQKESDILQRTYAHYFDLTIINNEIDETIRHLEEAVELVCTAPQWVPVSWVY

Usually inhibition stands for the drop in the measured response relative to a control, in per cent. Usually IC50 stands for the concentration needed to halve the response being measured. A higher IC50 goes with weaker potency in that assay. One may read the residual activity as the signal under treatment as a percentage of the control signal. Low values mean a large loss of activity, high ones a small loss of activity. As to `CCN1CCN(Cc2ccc(NC(=O)c3ccc(C)c(/C=C/c4cnc5[nH]ccc5c4OC)c3)cc2C(F)(F)F)CC1`, the inhibition in experiment [1] amounted to 75%; in experiment [2] it was 2%; in experiment [3], 79.9%; in experiment [6], 18.5%; in [7], 81%. This compound returned an IC50 in experiment [4] of 3.31 µM. In [5], the residual activity stood at 0.05%.

For `CCN1CCN(Cc2ccc(NC(=O)c3ccc(C)c(Oc4ccnc5[nH]ccc45)c3)cc2C(F)(F)F)CC1`, the inhibition in [8] is 0.8%; in experiment [9], 16.5%; in [10], 2.4%; in [12], 11%; in experiment [13], 2.8%; in experiment [17], -9.8%. The inhibition entry in experiment [11], in experiment [14], in experiment [15] and in [16] was “inactive” throughout.

Take `CNc1cc(Oc2cc(C(=O)Nc3cc(N4CCN(C)CC4)cc(C(F)(F)F)c3)ccc2C)ncn1`: the inhibition in [18] was -8.9%; in experiment [19] it was 8.9%; in experiment [20] it was 7.2%; in experiment [21], 3.1%; in experiment [22], 14.5%; in experiment [23], 43.4%. The inhibition in [25] came out at 9.3%. Moreover, the inhibition at 1 µM in experiment [24] was -10.2%.
